Read-outs that look alike come from different tables or passages of the source.
Tests used:
[1] = tested on: Influenza Virus A's Neuraminidase; test: Neuraminidase activity of cell-free virus, 4-methylumbelliferyl N-acetylneuramic acid substrate
Excerpt: The method of these experiments are well known in the art, however, in brief, cell free virus are mixed with an equal volume of the composition in Table 1 or Ascorbic Acid in another, at various concentrations, and any inhibitory activity is observed at various time points after the mixture. Spectrophotometer assay for Neuraminidase has been established in the laboratory at using 4-methylumbelliferyl N-acetylneuramic acid as a substrate in the cell free system.

[2] = tested on: human influenza A virus (VR-1520); type: cell-based; details: for output of Antigen to the control's output: Vero cells, control 245 Antigen units/ml

## O=C1O[C@H]([C@@H](O)CO)C(O)=C1O [ascorbic acid]
[1]; 1000 microgram/ml
  Neuraminidase activity to the control's: 90%
[1]; 2000 microgram/ml
  Neuraminidase activity to the control's: 85%
[1]; 3000 microgram/ml
  Neuraminidase activity to the control's: 80%
[2]; 50 micromoles
  output of Antigen to the control's output: 35%
[2]; 100 micromoles
  output of Antigen to the control's output: 45%
[2]; 250 micromoles
  output of Antigen to the control's output: 41%
[2]; various concentrations, serum-free medium
  Influenza A virus antigen production in Vero cells (figure legend): marginal decrease

Source: patent publication US20070212426A1, “Composition and method of retarding viral activity and reducing viral replication” (priority 2006, published 2007)
